Data as given in PubChem BioAssay (NCI).
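Five concentrations, 48 hours, 96-well plates. Abbreviation: GI50, concentration required for 50% inhibition of growth. Definition used: TGI = concentration required for complete inhibition of growth.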 Where a SMILES comes first, the peptide text is derived from it.

Tests used:
Assay in all cases: DTP human tumour cell line panel, 48 h
COLO 205 colon = test system: COLO 205 colon
HCC-2998 colon = test system: HCC-2998 colon
HCT-15 colon = test system: HCT-15 colon
HOP-62 NSCLC = test system: HOP-62 NSCLC
MDA-MB-435 = test system: MDA-MB-435
OVCAR-3 ovarian = test system: OVCAR-3 ovarian
SK-OV-3 ovarian = test system: SK-OV-3 ovarian
SR leukemia = test system: SR leukemia
UACC-62 melanoma = test system: UACC-62 melanoma
HS 578T breast = test system: HS 578T breast

Row | Structure (SMILES) | GI50 (COLO 205 colon) [µM] | TGI (COLO 205 colon) [µM] | GI50 (HCC-2998 colon) [µM] | TGI (HCC-2998 colon) [µM] | GI50 (HCT-15 colon) [µM] | TGI (HCT-15 colon) [µM] | GI50 (HOP-62 NSCLC) [µM] | TGI (HOP-62 NSCLC) [µM] | GI50 (MDA-MB-435) [µM] | TGI (MDA-MB-435) [µM] | GI50 (OVCAR-3 ovarian) [µM] | TGI (OVCAR-3 ovarian) [µM] | GI50 (SK-OV-3 ovarian) [µM] | TGI (SK-OV-3 ovarian) [µM] | TGI (SR leukemia) [µM] | TGI (UACC-62 melanoma) [µM] | GI50 (HS 578T breast) [µM] | TGI (HS 578T breast) [µM] | GI50 (SR leukemia) [µM] | GI50 (UACC-62 melanoma) [µM]
1 | COC1=CC(c2ccc[nH]2)=N/C1=C\c1[nH]c(C)c(CC(=O)NCc2ccccc2)c1C | 1.38 | 2.98 | 1.55 | 3.07 | 1.06 | 2.45 | 1.51 | 2.95 | 1.68 | 3.23 | 1.46 | 2.91 | 1.87 | 3.39 | – | – | – | – | – | –
2 | O=C([O-])c1ccccc1Nc1ccccc1C(=O)[O-].[OH3+].[Zn+2] | – | > 75.3 | – | > 100 | – | > 100 | – | > 58.5 | – | – | – | 32.9 | – | 39 | > 63.7 | 39.9 | – | – | – | –
3 | O=C(N/N=C\c1ccc(N(CCCl)CCCl)cc1)c1cccnc1 | > 100 | > 100 | 55.5 | > 100 | 37.1 | > 100 | 31.5 | > 100 | 33.4 | > 100 | 30.5 | > 100 | – | – | > 100 | > 100 | 65.5 | > 100 | 3.1 | 9.1
4 | COc1cc2c(c(OC)c1OC)-c1ccc(OC)c(=O)cc1C(NC(=O)CCCCCNc1ccc(N=[N+]=[N-])cc1[N+](=O)[O-])CC2 (centres undefined) | – | < 0.01 | – | – | – | 0.245 | – | > 31.6 | – | < 0.01 | – | < 0.0152 | – | 7.17 | < 0.01 | < 0.01 | – | 4.67 | – | –
5 | COc1c(O)cc2c(c1O)C(=O)C(Cc1ccc(O)cc1)CO2 (centres undefined) | – | > 100 | – | – | – | > 100 | – | > 100 | – | 76.8 | – | > 100 | – | > 100 | > 100 | > 100 | – | > 100 | – | –
6 | CC1=C/C(=N\NS(=O)(=O)c2ccc([N+](=O)[O-])cc2)CC(C)(C)C1 | – | > 100 | – | > 100 | – | > 100 | – | > 100 | – | > 100 | – | > 100 | – | > 100 | > 100 | > 100 | – | – | – | –
7 | N=C1c2ccccc2C(=O)c2c(NCCNCCO)ccc(O)c21 | – | 16.9 | – | 21.4 | – | > 63 | – | 22.5 | – | – | – | 52.7 | – | 50.2 | 5.32 | 18.9 | – | – | – | –
8 | CC(=O)NC(CS)C(=O)NC(CO)C(=O)NC(CO)C(=O)NC(Cc1c[nH]c2ccccc12)C(=O)N1CCCC1C(=O)NC(CO)C(=O)NC(Cc1c[nH]c2ccccc12)C(=O)NC(Cc1c[nH]cn1)C(=O)NC(CO)C(=O)NC(Cc1c[nH]c2ccccc12)C(=O)NCC(=O)NCC(=O)NC(C)C(=O)NC(CCC(N)=O)C(=O)NC(CCCCN)C(=O)NC(C)C(=O)NC(CCCNC(=N)N)C(=O)NC(CCCCN)C(N)=O (centres undefined) (Ac-CSSWPSWHSWGGAQKARK-NH2; configuration not given here) | – | 28.2 | – | – | – | > 50 | – | > 50 | – | > 50 | – | > 50 | – | > 50 | 43.4 | 24 | – | > 50 | – | –
9 | N#CC1(C#N)C(=O)c2ccncc2C1=O | – | > 100 | – | > 100 | – | > 100 | – | – | – | > 100 | – | > 100 | – | > 100 | > 100 | > 100 | – | > 100 | – | –
10 | O=S(=O)(O)c1ccc(N=Nc2ccc(N=Nc3c(O)ccc4ccc(S(=O)(=O)O)cc34)cc2)cc1 | – | > 100 | – | > 100 | – | > 100 | – | > 100 | – | > 100 | – | > 100 | – | > 100 | > 100 | > 100 | – | > 100 | – | –
11 | CN(CCO)CCC1COc2ccccc2O1 (centres undefined) | – | > 10 | – | > 10 | – | > 10 | – | > 10 | – | > 10 | – | > 10 | – | > 10 | > 10 | > 10 | – | > 10 | – | –
12 | Brc1ccc2nc(-c3cccs3)nc(N3CCN(c4ccccc4)CC3)c2c1 | – | > 100 | – | > 100 | – | > 100 | – | > 100 | – | > 100 | – | > 100 | – | > 100 | > 100 | > 100 | – | > 100 | – | –
13 | CC(C)(C)c1ccc(NS(=O)(=O)c2ccc(N)cc2)cc1 | – | 29.6 | – | 39.5 | – | > 100 | – | 13.7 | – | 73.5 | – | 12.9 | – | 12.5 | – | 30.3 | – | 59.3 | – | –
14 | COc1cc(-c2n/c(=C\c3c(O)[nH]c4ccccc34)cc3c2=Nc2ccccc2-3)ccc1F | 10.9 | > 100 | 4.32 | > 100 | 17.2 | > 100 | 4.68 | 17.3 | 5.8 | 64.4 | 4.08 | 14.5 | 17.1 | 43.5 | 20.2 | 21.7 | 19.7 | > 100 | 2.05 | 5.98
15 | C/C=C(\C)C(=O)OC1C2C(C)=CC(=O)C(O)C2(C)C2C3(O)OCC24C1OC(=O)C(OC(C)=O)C4C(C)C3O (centres undefined) | – | 0.229 | – | 0.0928 | – | 0.328 | – | 0.0415 | – | – | – | 0.0496 | – | 1.12 | – | 0.0555 | – | – | – | –
16 | CCOC(=O)NC(=O)c1cn(CCN(CCO)C(=O)NCCCCCCNC(=O)N(CCO)CCn2cc(C(=O)NC(=O)OCC)c(=O)[nH]c2=O)c(=O)[nH]c1=O | – | > 100 | – | > 100 | – | > 100 | – | > 100 | – | – | – | > 100 | – | – | – | > 100 | – | – | – | –
17 | CCCC[n+]1ccn(-c2nc3ccccc3n2C)c1 | – | – | – | > 100 | – | > 100 | – | > 100 | – | – | – | > 100 | – | > 100 | > 100 | > 100 | – | – | – | –
18 | COc1nc2ccc(Cl)c(C(O)c3ccccc3)c2nc1OC (centres undefined) | – | 32.5 | – | – | – | 50.1 | – | 38.6 | – | 42.8 | – | 69.6 | – | – | 27.3 | 96.3 | – | 38.9 | – | –
19 | COC(Cc1cc(C(O)(c2ccc(C(C)(C)C)cc2)c2cc(CC(OC)(c3cc(C(OC)(c4ccc(C(C)(C)C)cc4)c4ccc(C(C)(C)C)cc4)c(C)cc3C)c3cc(C(OC)(c4ccc(C(C)(C)C)cc4)c4ccc(C(C)(C)C)cc4)c(C)cc3C)c(C)cc2C)c(C)cc1C)(c1cc(C(OC)(c2ccc(C(C)(C)C)cc2)c2ccc(C(C)(C)C)cc2)c(C)cc1C)c1cc(C(OC)(c2ccc(C(C)(C)C)cc2)c2ccc(C(C)(C)C)cc2)c(C)cc1C | – | > 75 | – | > 75 | – | > 75 | – | > 75 | – | > 75 | – | > 75 | – | > 75 | > 75 | > 75 | – | > 75 | – | –
20 | N/C(=C\c1ccc(/C=C(\NC(=O)c2ccccc2)c2nc3c([nH]2)C(=O)c2ccccc2C3=O)cc1)c1nc2c([nH]1)C(=O)c1ccccc1C2=O | – | 29.9 | – | – | – | 37.7 | – | – | – | – | – | 57.3 | – | 48.8 | – | 27.8 | – | – | – | –
21 | N#C[S-].[Ce+3].c1ccc(-c2ccccn2)nc1.c1ccc(-c2ccccn2)nc1.c1ccc(-c2ccccn2)nc1 | 33 | > 100 | 18.3 | > 100 | 5.18 | > 100 | – | – | – | – | 43.1 | > 100 | 27 | 60.7 | > 100 | 55.2 | – | – | 25.7 | 20.6
